Article PMC3224947, “Inhibition of HIV-1 integrase nuclear import and replication by a peptide bearing integrase putative nuclear localization signal” (Retrovirology, 2009)

What was measured:
[1] = system: COS-7 cells (nuclear import); assay: Microinjection of FITC-BSA conjugates into COS-7 cells, nuclear import; format: cell-based; settings: 37°C, 2 h after injection, fluorescence microscopy (Fig. 3A-E)
Description: Nuclear import transport substrates
Proteins and peptides used in this work as transport substrates were covalently attached to either fluorescein isothiocyanate-labeled bovine serum albumin (FITC-BSA) or biotinylated BSA (Bb) molecules (Sigma). Sulfosuccinimidyl-4-(N-maleimidomethyl) cyclohexane-1-carboxylate (sulfo-SMCC) was used as the cross-linker to give FITC-BSA-protein/peptide and Bb-protein/peptide conjugates, as described previously.
Microinjection of fluorescently labeled transport substrates
FITC-BSA-IN, FITC-BSA-180-IN, FITC-BSA-152-IN, FITC-BSA-NLS-IN, as well as unlabeled FITC-BSA, were microinjected into the cytoplasm of cultured COS-7 cells as described previously. The CompInject AIS2 automated microinjection system (Cell Biology Trading, Hamburg, Germany) was used following the method developed by Graessmann and Graessman. Cultured mammalian cells were incubated at 37°C for 2 h after injection and observed by fluorescence microscopy.

[2] = system: HIV-1 replication in Sup-T1 cells; assay: Time-of-addition assay, viral p24 production in Sup-T1 cells; format: cell-based; settings: non-active peptides, NLS-IN and Pen at 62.5 μM in time-of-addition; sentence cites Fig. 9 as a whole
Experimental: Sup-T1 cells were infected with wild-type HIV-1 at a MOI of 2, and the test compounds were added at different time points after infection (0, 2, 4,..., 24 h). Viral p24 production was determined at 48 h PI [67]. Dextran sulfate was tested at 20 μM, AZT at 2 μM, NLS-IN-Pen, NLS-IN and Pen at 62.5 μM, LEDGF 402-411 at 12.5 μM [41].

HIV-1 in TZM-bl cells = assay: MAGI assay, HIV-1 infection of TZM-bl cells (β-galactosidase reporter); format: cell-based; settings: TZM-bl cells (Fig. 9A, B); dividing/non-dividing not distinguished
Experimental: HIV-1 titration by multinuclear activation of a galactosidase indicator (MAGI) assay
Quantitative titration of HIV-1 was carried out using the MAGI assay, as described previously. Briefly, TZM-b1 cells were grown in 96-well plates at 10^4 cells/well and incubated for 12 h at 37°C. Peptides were then added and after an additional 2 h of incubation, the cells were infected with 50 μl of serially diluted HIV-1. To obtain cell-cycle arrested cells, 5 μg/ml of aphidicolin was added 2 h before the experiment. Cultured cells were fixed 2 days PI and β-galactosidase was estimated. Blue cells were counted under a light microscope at 200× magnification.

IN-importin α complex = assay: Co-immunoprecipitation of IN and importin α from HIV-1-infected cells; settings: HIV-1-infected H9 lymphocytes, 150 μM peptide 2 h prior to infection, harvested 10 h PI (Fig. 7A)
[3] = system: HIV-1 IN (nuclear import); assay: Immunostaining of IN localization in HIV-1-infected HeLaP4 cells; format: cell-based; settings: aphidicolin-arrested HeLaP4, 150 μM peptide 2 h, then HIV-1 MOI 25, fixed 10 h PI (Fig. 7B)
Experimental: Localization studies of IN in HIV-1-infected cultured cells by immunostaining
HeLaP4 cells were grown on chamber slides. […] After incubation with the peptides, cells were infected with wild-type HIV-1 at a multiplicity of infection (MOI) of 25. Cells were fixed and stained as described above with the following modifications: fixation was performed at 10 h PI, the first antibody was used at a dilution of 1:50, the second antibody at a dilution of 1:100.

[4] = system: HIV-1 IN (nuclear import); assay: Immunostaining of intracellular localization of IN in stably transfected, cell-cycle arrested HeLaP4/IN-expressing cells; format: cell-based; settings: aphidicolin 5 μg/ml arrested HeLaP4/IN cells; 150 μM peptide, 6 h; confocal microscopy (Fig. 1)
Experimental: Localization studies of transfected IN in cultured cells by immunostaining
HeLaP4/IN-expressing cells were grown on chamber slides (Nunc). […] Cells were fixed and immunostained essentially as described previously with several modifications. Briefly, after fixation cells were blocked with 5% (w/v) BSA (IgG free) (Jackson) in PBS for 60 min. […] Cells were washed five times with PBS + 0.05% (v/v) Tween 20. Then the cells were incubated with a second antibody, Cy3-conjugated anti-rabbit antibody (Jackson) (1:200) at room temperature for 60 min followed by five washes with PBS + 0.05% Tween 20. For detection of DNA, cells were stained with DAPI according to the manufacturer's protocol. The slides were prepared with mounting media (Bio-Rad) and immunofluorescent cells were detected with a confocal microscope.

Substance | nuclear import after microinjection [1] | inhibition of HIV-1 (Fig. 9) [2] | HIV-1 infection inhibition (HIV-1 in TZM-bl cells) | IN-importin α interaction (co-IP) (IN-importin α complex) | intranuclear IN in infected cells [3] | nuclear import / intracellular localization of IN [4]
FITC-BSA: fluorescein isothiocyanate-labeled bovine serum albumin | no nuclear import was observed | – | – | – | – | –
RQIKIWFQNRRMKWKK [Pen] | – | Inhibition was not observed | no inhibition of HIV-1 infection | neither the SV40-mut-NLS-Pen (or a scrambled NLS-IN [23], not shown) nor the Pen peptide itself promoted dissociation of the IN-importin α complex | some intranuclear fluorescently labeled IN could be observed | did not have any effect on nuclear import of IN
